biological target: T1, human IBAT (Homo sapiens, UniProt Q12908); assay: In vitro assay using Cos 7 cells, transiently expressed human IBAT; type: cell-based; conditions: [3H]-taurocholate 8 μM uptake, 37° C., 60 minutes
T1 sequence (Q12908 1-348): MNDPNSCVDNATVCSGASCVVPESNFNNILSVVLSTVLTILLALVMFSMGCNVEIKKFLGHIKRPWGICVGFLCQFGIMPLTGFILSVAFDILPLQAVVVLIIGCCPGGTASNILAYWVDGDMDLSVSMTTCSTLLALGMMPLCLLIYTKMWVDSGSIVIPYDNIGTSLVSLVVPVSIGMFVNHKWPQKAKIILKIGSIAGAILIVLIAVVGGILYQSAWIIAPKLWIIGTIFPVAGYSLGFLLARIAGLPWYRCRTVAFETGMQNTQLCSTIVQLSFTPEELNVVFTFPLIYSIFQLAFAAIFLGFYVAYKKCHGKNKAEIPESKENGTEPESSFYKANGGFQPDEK
Method: In the present Test Example, an in vitro assay of compounds using Cos 7 cells as to inhibitory activity on transiently expressed human IBAT or rat IBAT transporter was performed according to the method described in Am. J. Physiol., 274, G157-169.
That is, […] cells/well of Cos 7 cells were seeded in a 24-well plate, and after one day, the cells were transfected with 0.3 μg/well of cDNA of human IBAT or rat IBAT using FuGENE6 (supplied from Roche). After culturing for one day after the transfection, the cells were washed once with the assay buffer, i.e., Hanks buffer containing 25 mM glucose and 10 mM HEPES (pH 7.4). The assay buffer was then replaced with the assay buffer containing the test compound. [^3H]-Taurocholate at a final concentration of 8 μM was added thereto and incubated at 37° C. for 60 minutes so that [^3H]-taurocholate was taken into Cos 7 cells by the action of human IBAT or rat IBAT. The cells were washed twice with the assay buffer containing 1 mM taurocholate, and subsequently lysed with 0.2 M NaOH to stop the reaction. The cell lysate was added to 4 mL of liquid scintillation cocktail, which was then thoroughly vortexed. Then the radioactivity was measured using the liquid scintillation counter.

Row | SMILES | IC50
1 | CCCCC1(CCCC)CS(=O)(=O)c2ccc(N(C)C)cc2C(c2cccc(NC(=S)Nc3ccc(C[n+]4ccc(C(c5ccccc5)c5ccccc5)cc4)cc3)c2)N1 (centres unmarked) [EXAMPLE 5410] | 100 nM
2 | CCCCC1(CCCC)CS(=O)(=O)c2ccc(N(C)C)cc2C(c2cccc(NC(=S)Nc3ccc(C[n+]4cccc(F)c4)cc3)c2)N1 (centres unmarked) [EXAMPLE 5416] | 77 nM
3 | CCCCC1(CCCC)CS(=O)(=O)c2ccc(N(C)C)cc2C(c2cccc(NC(=S)Nc3ccc(C[n+]4cccc(Cl)c4)cc3)c2)N1 (centres unmarked) [EXAMPLE 5418] | 69 nM
4 | CCCCC1(CCCC)CS(=O)(=O)c2ccc(N(C)C)cc2C(c2cccc(NC(=S)Nc3ccc(C[n+]4ccccc4CCOC(C)C)cc3)c2)N1 (centres unmarked) [EXAMPLE 5420] | 68 nM
5 | CCCCC1(CCCC)CS(=O)(=O)c2ccc(N(C)C)cc2C(c2cccc(NC(=S)Nc3ccc(C[N+]45CCC(CC4)CC5)cc3C)c2)N1 (centres unmarked) [EXAMPLE P317] | 49 nM
6 | CCCCC1(CCCC)CS(=O)(=O)c2ccc(N(C)C)cc2C(c2cccc(NC(=S)Nc3ccc(C[N+]45CCC(CC4)CC5)c(F)c3)c2)N1 (centres unmarked) [EXAMPLE P319] | 42 nM
7 | CCCCC1(CCCC)CS(=O)(=O)c2ccc(N(C)C)cc2C(c2cccc(NC(=S)Nc3ccc(C[N+]45CCC(CC4)CC5)c(Cl)c3)c2)N1 (centres unmarked) [EXAMPLE P321] | 45 nM
8 | CCCCC1(CCCC)CS(=O)(=O)c2ccc(N(C)C)cc2C(c2cccc(NC(=S)Nc3ccc(C[N+]45CCC(CC4)CC5)cc3Br)c2)N1 (centres unmarked) [EXAMPLE P322] | 62 nM
9 | CCCCC1(CCCC)CS(=O)(=O)c2ccc(N(C)C)cc2C(c2cccc(NC(=S)Nc3c(C)cc(C[N+]45CCC(CC4)CC5)cc3C)c2)N1 (centres unmarked) [EXAMPLE P326] | 100 nM
10 | CCCCC1(CCCC)CS(=O)(=O)c2ccc(N(C)C)cc2C(c2cccc(NC(=S)Nc3ccc(C[N+](C)(C)Cc4ccccc4)cc3Cl)c2)N1 (centres unmarked) [EXAMPLE P332] | 46 nM
11 | CCCCC1(CCCC)CS(=O)(=O)c2ccc(N(C)C)cc2C(c2cccc(NC(=S)Nc3ccc(C[N+](C)(C)Cc4ccccc4)c(Cl)c3)c2)N1 (centres unmarked) [EXAMPLE P333] | 44 nM
12 | CCCCC1(CCCC)CS(=O)(=O)c2ccc(N(C)C)cc2C(c2cccc(NC(=S)Nc3ccc(C[N+](C)(C)Cc4ccccc4)c(Br)c3)c2)N1 (centres unmarked) [EXAMPLE P335] | 68 nM
13 | CCCCC1(CCCC)CS(=O)(=O)c2ccc(N(C)C)cc2C(c2cccc(NC(=S)Nc3c(C)cc(C[N+](C)(C)Cc4ccccc4)cc3C)c2)N1 (centres unmarked) [EXAMPLE P338] | 47 nM
14 | CCCCC1(CCCC)CS(=O)(=O)c2ccc(N(C)C)cc2C(c2cccc(NC(=S)Nc3ccc(C[N+]45CCC(c6ccccc6)(CC4)CC5)c([N+](=O)[O-])c3)c2)N1 (centres unmarked) [EXAMPLE P349] | 41 nM
15 | CCCCC1(CCCC)CS(=O)(=O)c2ccc(N(C)C)cc2C(c2cccc(NC(=S)Nc3ccc(C[n+]4ccc(C(C)(C)C)cc4)cc3C)c2)N1 (centres unmarked) [EXAMPLE P364] | 48 nM
16 | CCCCC1(CCCC)CS(=O)(=O)c2ccc(N(C)C)cc2C(c2cccc(NC(=S)Nc3ccc(C[n+]4ccc(C(C)(C)C)cc4)c([N+](=O)[O-])c3)c2)N1 (centres unmarked) [EXAMPLE P373] | 97 nM
17 | CCCCC1(CCCC)CS(=O)(=O)c2ccc(N(C)C)cc2C(c2cccc(NC(=S)Nc3ccc(C[n+]4ccc(-c5ccccc5)cc4)c([N+](=O)[O-])c3)c2)N1 (centres unmarked) [EXAMPLE P385] | 56 nM
18 | CCCCC1(CCCC)CS(=O)(=O)c2ccc(N(C)C)cc2C(c2cccc(NC(=S)Nc3c(C)cc(C[n+]4ccc(-c5ccccc5)cc4)cc3C)c2)N1 (centres unmarked) [EXAMPLE P386] | 60 nM

Other lines, results leading:

Row | IC50 | SMILES
19 | 37 nM | CCCCC1(CCCC)CS(=O)(=O)c2ccc(N(C)C)cc2C(c2cccc(NC(=S)Nc3ccc(C[n+]4ccc(C(C)(C)O)cc4)cc3)c2)N1 (centres unmarked) [EXAMPLE 5412]
20 | 39 nM | CCCCC1(CCCC)CS(=O)(=O)c2ccc(N(C)C)cc2C(c2cccc(NC(=S)Nc3ccc(C[n+]4ccc(C5CCOCC5)cc4)cc3)c2)N1 (centres unmarked) [EXAMPLE 5419]
21 | 41 nM | CCCCC1(CCCC)CS(=O)(=O)c2ccc(N(C)C)cc2C(c2cccc(NC(=S)Nc3ccc(C[N+]45CCC(CC4)CC5)cc3Cl)c2)N1 (centres unmarked) [EXAMPLE P320]
22 | 32 nM | CCCCC1(CCCC)CS(=O)(=O)c2ccc(N(C)C)cc2C(c2cccc(NC(=S)Nc3ccc(C[N+]45CCC(CC4)CC5)c(Br)c3)c2)N1 (centres unmarked) [EXAMPLE P323]
23 | 37 nM | CCCCC1(CCCC)CS(=O)(=O)c2ccc(N(C)C)cc2C(c2cccc(NC(=S)Nc3ccc(C[N+]45CCC(CC4)CC5)c(C(F)(F)F)c3)c2)N1 (centres unmarked) [EXAMPLE P324]
24 | 38 nM | CCCCC1(CCCC)CS(=O)(=O)c2ccc(N(C)C)cc2C(c2cccc(NC(=S)Nc3ccc(C[N+](C)(C)Cc4ccccc4)cc3C)c2)N1 (centres unmarked) [EXAMPLE P328]
25 | 32 nM | CCCCC1(CCCC)CS(=O)(=O)c2ccc(N(C)C)cc2C(c2cccc(NC(=S)Nc3ccc(C[N+](C)(C)Cc4ccccc4)cc3F)c2)N1 (centres unmarked) [EXAMPLE P330]
26 | 35 nM | CCCCC1(CCCC)CS(=O)(=O)c2ccc(N(C)C)cc2C(c2cccc(NC(=S)Nc3ccc(C[N+](C)(C)Cc4ccccc4)c(F)c3)c2)N1 (centres unmarked) [EXAMPLE P331]
27 | 37 nM | CCCCC1(CCCC)CS(=O)(=O)c2ccc(N(C)C)cc2C(c2cccc(NC(=S)Nc3ccc(C[N+](C)(C)Cc4ccccc4)cc3Br)c2)N1 (centres unmarked) [EXAMPLE P334]
28 | 40 nM | CCCCC1(CCCC)CS(=O)(=O)c2ccc(N(C)C)cc2C(c2cccc(NC(=S)Nc3c(C)cc(C[N+]45CCC(c6ccccc6)(CC4)CC5)cc3C)c2)N1 (centres unmarked) [EXAMPLE P350]
29 | 23 nM | CCCCC1(CCCC)CS(=O)(=O)c2ccc(N(C)C)cc2C(c2cccc(NC(=S)Nc3ccc(C[n+]4ccc(C(C)(C)C)cc4)c(F)c3)c2)N1 (centres unmarked) [EXAMPLE P367]
30 | 29 nM | CCCCC1(CCCC)CS(=O)(=O)c2ccc(N(C)C)cc2C(c2cccc(NC(=S)Nc3ccc(C[n+]4ccc(C(C)(C)C)cc4)cc3Cl)c2)N1 (centres unmarked) [EXAMPLE P368]
31 | 34 nM | CCCCC1(CCCC)CS(=O)(=O)c2ccc(N(C)C)cc2C(c2cccc(NC(=S)Nc3ccc(C[n+]4ccc(C(C)(C)C)cc4)c(Cl)c3)c2)N1 (centres unmarked) [EXAMPLE P369]
32 | 30 nM | CCCCC1(CCCC)CS(=O)(=O)c2ccc(N(C)C)cc2C(c2cccc(NC(=S)Nc3ccc(C[n+]4ccc(C(C)(C)C)cc4)cc3Br)c2)N1 (centres unmarked) [EXAMPLE P370]
33 | 28 nM | CCCCC1(CCCC)CS(=O)(=O)c2ccc(N(C)C)cc2C(c2cccc(NC(=S)Nc3ccc(C[n+]4ccc(C(C)(C)C)cc4)c(Br)c3)c2)N1 (centres unmarked) [EXAMPLE P371]
34 | 35 nM | CCCCC1(CCCC)CS(=O)(=O)c2ccc(N(C)C)cc2C(c2cccc(NC(=S)Nc3ccc(C[n+]4ccc(C(C)(C)C)cc4)c(C(F)(F)F)c3)c2)N1 (centres unmarked) [EXAMPLE P372]
35 | 33 nM | CCCCC1(CCCC)CS(=O)(=O)c2ccc(N(C)C)cc2C(c2cccc(NC(=S)Nc3c(C)cc(C[n+]4ccc(C(C)(C)C)cc4)cc3C)c2)N1 (centres unmarked) [EXAMPLE P374]
36 | 37 nM | CCCCC1(CCCC)CS(=O)(=O)c2ccc(N(C)C)cc2C(c2cccc(NC(=S)Nc3ccc(C[n+]4ccc(-c5ccccc5)cc4)cc3C)c2)N1 (centres unmarked) [EXAMPLE P376]
37 | 34 nM | CCCCC1(CCCC)CS(=O)(=O)c2ccc(N(C)C)cc2C(c2cccc(NC(=S)Nc3ccc(C[n+]4ccc(-c5ccccc5)cc4)cc3F)c2)N1 (centres unmarked) [EXAMPLE P378]
38 | 26 nM | CCCCC1(CCCC)CS(=O)(=O)c2ccc(N(C)C)cc2C(c2cccc(NC(=S)Nc3ccc(C[n+]4ccc(-c5ccccc5)cc4)c(F)c3)c2)N1 (centres unmarked) [EXAMPLE P379]
39 | 18 nM | CCCCC1(CCCC)CS(=O)(=O)c2ccc(N(C)C)cc2C(c2cccc(NC(=S)Nc3ccc(C[n+]4ccc(-c5ccccc5)cc4)cc3Cl)c2)N1 (centres unmarked) [EXAMPLE P380]
40 | 28 nM | CCCCC1(CCCC)CS(=O)(=O)c2ccc(N(C)C)cc2C(c2cccc(NC(=S)Nc3ccc(C[n+]4ccc(-c5ccccc5)cc4)c(Cl)c3)c2)N1 (centres unmarked) [EXAMPLE P381]
41 | 28 nM | CCCCC1(CCCC)CS(=O)(=O)c2ccc(N(C)C)cc2C(c2cccc(NC(=S)Nc3ccc(C[n+]4ccc(-c5ccccc5)cc4)cc3Br)c2)N1 (centres unmarked) [EXAMPLE P382]
42 | 26 nM | CCCCC1(CCCC)CS(=O)(=O)c2ccc(N(C)C)cc2C(c2cccc(NC(=S)Nc3ccc(C[n+]4ccc(-c5ccccc5)cc4)c(Br)c3)c2)N1 (centres unmarked) [EXAMPLE P383]
43 | 32 nM | CCCCC1(CCCC)CS(=O)(=O)c2ccc(N(C)C)cc2C(c2cccc(NC(=S)Nc3ccc(C[n+]4ccc(-c5ccccc5)cc4)c(C(F)(F)F)c3)c2)N1 (centres unmarked) [EXAMPLE P384]
44 | 28 nM | CCCCC1(CCCC)CS(=O)(=O)c2ccc(N(C)C)cc2C(c2cccc(NC(=S)Nc3ccc(C[N+]45CCC(c6ccccc6)(CC4)CC5)cc3F)c2)N1 (centres unmarked) [Example P316, 1-(4-{3-[3-(3,3-dibutyl-7-dimethylamino-1,1-dioxo-2,3,4,5-tetrahydro-1,4-benzothiazepine-5-yl)phenyl]thioureido}-3-fluorobenzyl)-4-phenyl-1-azoniabicyclo[2.2.2]octane bromide]

— patent publication US20120015925A1, “NOVEL BENZOTHIAZEPINE AND BENZOTHIEPINE COMPOUNDS” (ASAHI KASEI PHARMA CORPORATION, priority 2004, published 2012)
